According to paper PMC5817083, “Oligopeptide Targeting Sortase A as Potential Anti-infective Therapy for Staphylococcus aureus” (Frontiers in Microbiology, 2018):
“Also recorded” adds a separate entry of the source. Marks after values point to notes of the source that are not given here.

How the values were obtained:
S. aureus USA 300 = assay: Growth curve experiment (OD 600 nm); type: cell-based, Staphylococcus aureus; conditions: USA 300 in TSB, oligopeptide 3.125–25 μM
Description: (§1) The broth microdilution method was used to determine the minimum inhibitory concentration (MIC) of the oligopeptide against the MRSA strain USA 300 according to the NCCLS guideline M31-A2. For the growth curve experiment, an overnight bacterial culture was inoculated in fresh TSB (1:100) with the indicated concentrations of the oligopeptide, and the optical density (OD) at 600 nm was measured for each sample at 1-h intervals.

[1] = test system: surface protein A display on S. aureus; assay: Immunofluorescence assay of surface protein A; type: cell-based, Staphylococcus aureus; conditions: S. aureus cultured with oligopeptide 37°C 2.5 h, confocal microscopy
Description: Detection of surface protein A by immunofluorescence analysis was performed as described previously ([Chen et al., 2014]). Briefly, S. aureus were cultured in TSB with or without the oligopeptide at 37°C for 2.5 h, pelleted by centrifugation (3,000 × g, 10 min), washed three times with PBS, blocked with 2% BSA for 1 h at 37°C, stained with fluorescein isothiocyanate (FITC)-labeled goat anti-rabbit IgG for 2 h at 37°C, and observed under a laser scanning confocal microscope (Olympus, Tokyo, Japan).

SrtAR197A [2] = biological target: T1, SrtAR197A (Staphylococcus aureus, UniProt Q2FV99, R197A); assay: SrtA activity inhibition assay, mutant SrtAR197A; type: biochemical; conditions: Figure 5C
T1 construct: GST (cleaved yes); made in house; host or cells: Escherichia coli BL21 (DE3)
Description: (§2) The procedures followed for expression and purification of the mutant proteins (SrtAN114A, SrtAC184A, and SrtAR197A) were identical to those followed for the wild-type protein (SrtAΔN59).
(§3) Site-directed mutagenesis for SrtAN114A, SrtAC184A, and SrtAR197A was conducted using a recombinant vector encoding SrtAΔN59 with a QuickChange Site-Directed Mutagenesis Kit (Stratagene, La Jolla, CA, United States). The primer pairs for these three mutations were as follows: N114A forward, 5′-[…]-3′; N114A reverse, 5′-[…]-3′; C184A forward, 5′-[…]-3′; C184A reverse, 5′-[…]-3′; R197A forward, 5′-[…]-3′; and R197A reverse, 5′-[…]-3′.
(§4) The inhibitory effect of the oligopeptide against SrtA and its mutants activity was determined as previously described in 96-well black plates (PerkinElmer, Boston, MA, United States) ([Wang et al., 2015c]). Briefly, 100 μL of purified SrtA ([…]) was preincubated with 100 μL of increasing concentrations of the oligopeptide (3.125–25 μM) in reaction buffer at 37°C for 20 min. The model fluorescent peptide substrate Dabcyl-[…]-Edans (GL Biochem, Shanghai, China) (final concentration of 10 μM) was added to the reaction system, followed by incubation at 37°C for 1 h. Fluorescence intensity was measured at […] wavelengths of 350 and 520 nm, respectively. The experiments were repeated three times independently for each sample.

SrtAR197A [3] = biological target: T1, SrtAR197A; assay: Fluorescence spectroscopy quenching binding constant, SrtAR197A
Description: (§5) In this study, the fluorescence quenching method was used to measure the binding constants (KA) of ligands to proteins. A 280-nm excitation wavelength with 5-nm band pass and a 345-nm emission wavelength with 10-nm band pass were used for the measurements. Details of the measurement procedures have been described previously ([Bandyopadhyay et al., 2002]; [Jurasekova et al., 2009]).

SrtAWT = biological target: T2, SrtAWT (Staphylococcus aureus, UniProt Q2FV99); assay: Fluorescence spectroscopy quenching binding constant, SrtAWT
T2 construct: GST (cleaved yes); made in house; host or cells: Escherichia coli BL21 (DE3)
Description: as §5

SrtAC184A [4] = biological target: T3, SrtAC184A (Staphylococcus aureus, UniProt Q2FV99, C184A); assay: Fluorescence spectroscopy quenching binding constant, SrtAC184A
T3 construct: GST (cleaved yes); made in house; host or cells: Escherichia coli BL21 (DE3)
Description: as §5

MRSA strain USA 300 = assay: Broth microdilution MIC; type: cell-based, Staphylococcus aureus; conditions: for anti-S. aureus (bacteriostatic) activity: at concentrations that inhibit SrtA activity
Description: as §1

[5] = test system: S. aureus USA 300 adherence to bovine fibronectin; assay: Fibronectin-binding assay; type: cell-based, Staphylococcus aureus; conditions: USA 300 treated with oligopeptide, crystal violet OD570 nm
Description: Ninety-six-well flat-bottom polystyrene plates were coated with 100 μL of 2 μg/mL fibronectin in PBS (fibronectin from bovine plasma; Sigma–Aldrich, St. Louis, MO, United States) per well and incubated at 4°C overnight. Each well was washed three times with PBS and blocked with 5% BSA in PBS at 37°C for 2 h. An overnight bacterial culture was inoculated in fresh TSB (1:100, OD600 nm ≈ 0.2) with the indicated concentrations of the oligopeptide and incubated until the OD600 nm reached 0.5. Then, the cells were centrifuged at 5000 × g for 10 min and resuspended in PBS to an OD600 nm of 1.0. One hundred microliters of bacterial suspension were added to each fibronectin-coated plate well as described above, and the plates were incubated at 37°C for 2 h. After removal of the cell suspension, 25% (v/v) formaldehyde was added to fix S. aureus. Then, the bacteria attached to fibronectin were stained with 100 μL of 0.4% crystal violet dye for 20 min at 37°C after being washed once with PBS. Following removal of the supernatant, adherence was quantified by measuring the OD570 nm for each well. USA 300 without the oligopeptide was used as a positive control, and PBS was used as a negative control.

SrtAC184A [6] = biological target: T3, SrtAC184A; assay: SrtA activity inhibition assay, mutant SrtAC184A; type: biochemical; conditions: Figure 5C
Description: as §2, §3, §4

SrtAN114A [7] = biological target: T4, SrtAN114A (Staphylococcus aureus, UniProt Q2FV99, N114A); assay: SrtA activity inhibition assay, mutant SrtAN114A; type: biochemical; conditions: Figure 5C
T4 construct: GST (cleaved yes); made in house; host or cells: Escherichia coli BL21 (DE3)
Description: as §2, §3, §4

[8] = test system: S. aureus-induced mastitis; assay: Mouse mastitis model of S. aureus infection; type: in vivo, BALB/c mice; conditions: for protection against S. aureus-induced mastitis: mouse model
Description: BALB/c mice (from the Experimental Animal Center of Jilin University) were obtained and housed under specific pathogen-free conditions. All animal studies were approved by and conducted in accordance with the guidelines of the Animal Welfare and Research Ethics Committee of Jilin University. An overnight bacterial culture was inoculated in fresh TSB broth (1:100, OD600 nm ≈ 0.2) and incubated until the OD600 nm reached 0.8. Cells were harvested by centrifugation at 3,000 × g for 10 min, washed three times with PBS, and resuspended in PBS to a concentration of 1 × 10^9 CFU/mL for the mastitis infection experiment.
For establishment of a mastitis model of infection, lactating BALB/c mice, 10–12 weeks of age and weighing 30–32 g, were anesthetized using sodium pentobarbital and infected by injecting the canal glands with 50 μL of staphylococcal suspension per breast. The infected mice were administered 50 mg/kg of the oligopeptide subcutaneously at the time of infection and then at 12-h intervals. The control mice received an equal volume of PBS at the same time points. To evaluate the pathological correlates of mastitis, mammary gland tissues isolated from sacrificed mice at 48 h post-infection were fixed in 4% paraformaldehyde, stained with hematoxylin and eosin, and visualized by light microscopy. Furthermore, additional mammary gland tissues from the mice sacrificed at 48 h post-infection were homogenized in PBS containing 2% Triton X-100, after which they were appropriately diluted and inoculated onto TSB agar plates for assessment of the bacterial burden. The levels of the inflammatory cytokines IL-1β, IL-6, and TNF-α in the supernatants were measured using ELISA kits.

[9] = test system: S. aureus invasion into J774 cells; assay: Invasion assay in J774 cells; type: cell-based, Staphylococcus aureus; conditions: 25 μM oligopeptide, infection 1 h, CFU of lysed cells
Description: J774 cells were adjusted to 4 × 10^5 per glass slide in 24-well plates in Dulbecco’s […] essential medium (DMEM) supplemented with 10% fetal bovine serum (FBS) and cultured in an incubator at 5% CO2 and 37°C overnight. An overnight bacterial culture was inoculated in fresh TSB (1:100, OD600 nm ≈ 0.2) with the indicated concentrations of the oligopeptide and incubated until the OD600 nm reached 1.0. Then, the bacteria were resuspended in DMEM containing 10% FBS at a concentration of 1 × 10^8 CFU/mL, and 1 mL of the resuspension was added to each well for infection at 37°C for 1 h. Invasion was terminated by incubation with 300 μg/mL gentamicin for 30 min. After three washes with PBS, coverslips were placed in 0.2% Triton X-100 with vigorous vortexing, and the diluted lysates were plated onto TSB agar plates to enumerate the number of bacteria associated with each sample.

SrtAN114A [10] = biological target: T4, SrtAN114A; assay: Fluorescence spectroscopy quenching binding constant, SrtAN114A
Description: as §5

SrtA (SrtAΔN59) = biological target: T5, SrtA (SrtAΔN59) (Staphylococcus aureus, UniProt Q2FV99); assay: SrtA activity inhibition assay (fluorescent substrate Dabcyl-[…]-Edans); type: biochemical; conditions: purified SrtA preincubated with oligopeptide 3.125–25 μM, 37°C 20 min; substrate 10 μM, 1 h
T5 construct: GST (cleaved yes); made in house; host or cells: Escherichia coli BL21 (DE3)
Description: An Escherichia coli BL21 (DE3) strain harboring a recombinant vector encoding SrtA∆N59 was used, as described previously ([Wang et al., 2015c]). Cells were cultured overnight at 16°C with 1 mM isopropyl-β-D-thiogalactopyranoside (IPTG, Invitrogen, Carlsbad, CA, United States) in TSB containing ampicillin to induce SrtA expression until the OD600 reached 0.6 ∼ 0.8. Then, the cells were harvested by centrifugation at 5,500 × g for 10 min, resuspended in reaction buffer (50 mM Tris-HCl, 5 mM CaCl2, and 150 mM NaCl, pH 7.5) and lysed by sonication. […] The bound GST-tagged proteins were incubated with Precision Protease at 4°C overnight prior to elution with reaction buffer. Purified SrtA proteins were concentrated to […] via centrifugal filtration (Millipore, Bedford, MA, United States) and subsequently analyzed by SDS-PAGE.
The inhibitory effect of the oligopeptide against SrtA and its mutants activity was determined as previously described in 96-well black plates (PerkinElmer, Boston, MA, United States) ([Wang et al., 2015c]). Briefly, 100 μL of purified SrtA ([…]) was preincubated with 100 μL of increasing concentrations of the oligopeptide (3.125–25 μM) in reaction buffer at 37°C for 20 min. […] Fluorescence intensity was measured at […] wavelengths of 350 and 520 nm, respectively. […]

## LPRDA
S. aureus USA 300
  growth of S. aureus: not visibly affected
[1]
  display (anchoring) of surface protein A, binding of FITC-conjugated IgG: significantly hindered the binding of FITC-conjugated IgG; also recorded: decreased
SrtAR197A [2]
  sensitivity of SrtAR197A to oligopeptide-induced inhibition compared to wild-type SrtA: significantly decreased
SrtAR197A [3]
  binding constant KA: 5.0 ± 1.4 (1 × 10^4) L⋅mol^-1
SrtAWT
  binding constant KA: 6.6 ± 1.3 (1 × 10^4) L⋅mol^-1
SrtAC184A [4]
  binding constant KA: 5.1 ± 1.2 (1 × 10^4) L⋅mol^-1
MRSA strain USA 300; MRSA USA 300, broth microdilution
  MIC: greater than 200 μM
MRSA strain USA 300
  anti-S. aureus (bacteriostatic) activity: without anti-S. aureus activity
MRSA strain USA 300; listed as oligopeptide
  anti-S. aureus (bacteriostatic) activity: no anti-Staphylococcus aureus activity; also recorded: no bacteriostatic activity
[5]
  adherence to fibronectin: decreased adherence
SrtAC184A [6]
  sensitivity of SrtAC184A to oligopeptide-induced inhibition compared to wild-type SrtA: significantly decreased
SrtAN114A [7]
  sensitivity of SrtAN114A to oligopeptide-induced inhibition compared to wild-type SrtA: significantly decreased
[8]; lactating BALB/c mice, 50 mg/kg at infection then 12-h intervals, 48 h post-infection, vs PBS, listed as oligopeptide, 50 mg/kg
  inflammatory responses and pathological changes of mammary gland tissues: effectively alleviated; also recorded: Significant alleviation; also recorded: remarkably alleviated
[8]; lactating BALB/c mice, 50 mg/kg, 48 h post-infection, ELISA
  levels of cytokines IL-1β, IL-6 and TNF-α in mammary gland tissues: significantly reduced
[8]; lactating BALB/c mice, 50 mg/kg, 48 h post-infection, vs PBS-treated control
  bacterial burden in mammary gland tissues: significant decrease
[8]
  protection against S. aureus-induced mastitis: conferred effective protection
[8]; listed as oligopeptide
  protection against S. aureus-induced mastitis: provided protection
[9]
  invasion of S. aureus into J774 cells: significant anti-invasive activity
SrtAN114A [10]
  binding constant KA: 4.2 ± 1.1 (1 × 10^4) L⋅mol^-1

## LPRDA (PEG2000-LPRDA-NH2)
SrtA (SrtAΔN59)
  IC50: 10.6 µM
